From the supplement of paper PMC10307832

What was measured:
Experiment in all cases: relative viability (nuclei count vs DMSO), 5 days (fraction); higher = more cells survive
Idelalisib + Lapatinib = compound: CC[C@H](Nc1ncnc2[nH]cnc12)c1nc2cccc(F)c2c(=O)n1-c1ccccc1 [Idelalisib] + CS(=O)(=O)CCNCc1ccc(-c2ccc3ncnc(Nc4ccc(OCc5cccc(F)c5)c(Cl)c4)c3c2)o1 [Lapatinib] (partner 2 µM)
Procedure, shortened: (§1)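 Lung cancer cell lines were seeded in 1536-well plates and dosed by pin tool the next day, with either a single drug or a fixed anchor-drug dose combined with five library-drug doses (not always all listed) spaced in √10 steps. Five days later, one step fixed the cells and stained their nuclei (final 0.05% Triton X-100, 1% formaldehyde, 1 ug/ml Hoechst), and nuclei were counted on 4× images. Relative viability is the nuclei count in treated wells divided by the count in vehicle wells, and each value is the median of duplicate plates.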

Idelalisib + Olaparib = compound: CC[C@H](Nc1ncnc2[nH]cnc12)c1nc2cccc(F)c2c(=O)n1-c1ccccc1 [Idelalisib] + O=C(c1cc(Cc2n[nH]c(=O)c3ccccc23)ccc1F)N1CCN(C(=O)C2CC2)CC1 [Olaparib] (partner 8 µM)
Procedure, shortened: as §1

Pemetrexed + Luminespib = compound: Nc1nc2[nH]cc(CCc3ccc(C(=O)N[C@@H](CCC(=O)O)C(=O)O)cc3)c2c(=O)[nH]1 [Pemetrexed] + CCNC(=O)c1noc(-c2cc(C(C)C)c(O)cc2O)c1-c1ccc(CN2CCOCC2)cc1 [Luminespib] (partner 0.01 µM)
Procedure, shortened: as §1

Pemetrexed + Tozasertib = compound: Nc1nc2[nH]cc(CCc3ccc(C(=O)N[C@@H](CCC(=O)O)C(=O)O)cc3)c2c(=O)[nH]1 [Pemetrexed] + Cc1cc(Nc2cc(N3CCN(C)CC3)nc(Sc3ccc(NC(=O)C4CC4)cc3)n2)n[nH]1 [Tozasertib] (partner 0.1 µM)
Procedure, shortened: as §1

Cell Line	relative viability (Idelalisib + Lapatinib; first compound 0.04 µM)	relative viability (Idelalisib + Lapatinib; first compound 0.1265 µM)	relative viability (Idelalisib + Lapatinib; first compound 0.4 µM)	relative viability (Idelalisib + Lapatinib; first compound 1.265 µM)	relative viability (Idelalisib + Lapatinib; first compound 4 µM)	relative viability (Idelalisib + Olaparib; first compound 0.04 µM)	relative viability (Idelalisib + Olaparib; first compound 0.1265 µM)	relative viability (Idelalisib + Olaparib; first compound 0.4 µM)	relative viability (Idelalisib + Olaparib; first compound 1.265 µM)	relative viability (Idelalisib + Olaparib; first compound 4 µM)	relative viability (Pemetrexed + Luminespib; first compound 0.002 µM)	relative viability (Pemetrexed + Luminespib; first compound 0.006325 µM)	relative viability (Pemetrexed + Luminespib; first compound 0.02 µM)	relative viability (Pemetrexed + Luminespib; first compound 0.06325 µM)	relative viability (Pemetrexed + Luminespib; first compound 0.2 µM)	relative viability (Pemetrexed + Tozasertib; first compound 0.002 µM)	relative viability (Pemetrexed + Tozasertib; first compound 0.006325 µM)	relative viability (Pemetrexed + Tozasertib; first compound 0.02 µM)	relative viability (Pemetrexed + Tozasertib; first compound 0.06325 µM)	relative viability (Pemetrexed + Tozasertib; first compound 0.2 µM)
NCI-H2087	1.15	1.06	1.13	1.11	1.18	0.498	0.628	0.517	0.658	0.591	0.206	0.204	0.243	0.152	0.136	0.257	0.276	0.287	0.297	0.232
NCI-H2126	0.808	0.785	0.634	0.764	0.728	0.933	0.916	0.834	0.972	0.898	0.827	0.96	0.89	0.883	0.831	0.711	0.845	0.875	0.775	0.643
NCI-H2170	0.285	0.267	0.242	0.29	0.29	0.606	0.679	0.643	0.558	0.515	0.684	0.861	0.709	0.749	0.583	0.714	0.644	0.636	0.829	0.602
NCI-H2228	1.21	1.14	0.875	1.23	1.03	0.911	0.985	0.589	0.871	0.538	0.18	–	0.153	0.115	0.124	0.318	–	0.266	0.209	0.173
NCI-H2347	0.942	0.917	0.84	1.01	0.969	0.591	0.659	0.528	0.644	0.464	0.0507	0.281	0.551	0.55	0.381	0.337	0.516	0.595	0.589	0.356
NCI-H2405	1.16	1.07	0.897	1.14	1.04	0.893	0.885	0.76	0.868	0.836	0.703	0.775	0.77	0.818	0.789	0.75	0.738	0.832	0.778	0.694
NCI-H3122	1.06	0.981	1.05	1.03	1.05	0.611	0.626	0.669	0.584	0.49	0.106	0.106	0.106	0.0892	0.0783	0.404	0.371	0.367	0.198	0.118
PC-3 [JPC-3]	0.455	0.49	0.439	0.44	0.36	1.09	1.23	1.08	1.13	0.953	0.678	0.79	0.702	0.715	0.758	0.82	0.939	0.895	0.878	0.861
PC-14	0.329	0.299	0.309	0.306	0.252	0.268	0.232	0.239	0.384	0.297	0.15	0.133	0.151	0.136	0.137	0.661	0.564	0.676	0.416	0.222
RERF-LC-KJ	0.763	0.872	0.814	0.83	0.789	0.873	0.941	0.864	0.892	0.814	1.39	1.28	1.38	1.21	0.831	0.52	0.477	0.526	0.475	0.325
SK-LU-1	0.851	0.866	0.617	0.998	0.661	0.584	0.492	0.41	0.424	0.464	0.195	0.2	0.187	0.2	0.21	0.303	0.324	0.374	0.378	0.333
SK-MES-1	0.467	0.445	0.432	0.443	0.396	0.736	0.711	0.679	0.636	0.448	0.649	0.56	0.965	0.688	0.773	0.891	0.843	0.879	0.843	0.817
SW 1573	1.17	1.06	0.913	1.12	1.27	0.465	0.426	0.364	0.521	0.431	0.285	0.443	0.249	0.125	0.176	0.241	0.197	0.201	0.139	0.178
